Results on 15 molecules are retold here after ChEMBL document CHEMBL3124855, “4'-Substituted pyrimidine nucleosides lacking 5'-hydroxyl function as potential anti-HCV agents” (Bioorg Med Chem Lett, 2014).

A short description of data set [1]: Cytotoxicity against human HuH7 cells after 2 days by XTT assay. Type of data set: cell-based, Huh-7. A general note: Formazan colour is commonly taken as a measure of viable cells.
For data set [2], the system named is Hepatitis C virus. Nature of the data set: Antiviral activity against HCV subtype 1a infected in Huh-7 cells assessed as reduction in viral RNA level at 84.4 uM after 8 to 10 days by quantitative PCR analysis. Type of data set: functional, Hepacivirus hominis.
A short description of data set [3]: Selectivity index, ratio of CC50 for human HuH7 cells to EC50 for HCV subtype 1a. Also noted: species or system Huh-7.
Data set [4] concerns Hepatitis C virus. Nature of the data set: Antiviral activity against HCV subtype 1a infected in Huh-7 cells assessed as reduction in viral RNA level after 8 to 10 days by quantitative PCR analysis. The class given is functional, organism-based, Hepacivirus hominis.
Data set [5] relates to Hepatitis C virus. As to the kind of experiment: Antiviral activity against HCV subtype 1a infected in Huh-7 cells assessed as reduction in viral RNA level at 69.4 uM after 8 to 10 days by quantitative PCR analysis. The class given is functional, Hepacivirus hominis.
Data set [6] has as its system Hepatitis C virus. Nature of the data set: Antiviral activity against HCV subtype 1a infected in Huh-7 cells assessed as reduction in viral RNA level at 75.2 uM after 8 to 10 days by quantitative PCR analysis. Type of data set: functional, Hepacivirus hominis.
Data set [7] concerns Hepatitis C virus. Nature of the data set: Antiviral activity against HCV subtype 1a infected in Huh-7 cells assessed as reduction in viral RNA level at 71.4 uM after 8 to 10 days by quantitative PCR analysis. The class given is functional, Hepacivirus hominis.
Data set [8] relates to Hepatitis C virus. As to the kind of experiment: Antiviral activity against HCV subtype 1a infected in Huh-7 cells assessed as reduction in viral RNA level at 69.7 uM after 8 to 10 days by quantitative PCR analysis. Type of data set: functional, Hepacivirus hominis.
For data set [9], the system named is Hepatitis C virus. As to the kind of experiment: Antiviral activity against HCV subtype 1a infected in Huh-7 cells assessed as reduction in viral RNA level at 79.4 uM after 8 to 10 days by quantitative PCR analysis. The class given is functional, Hepacivirus hominis.
In data set [10] the test system is Hepatitis C virus. Nature of the data set: Antiviral activity against HCV subtype 1a infected in Huh-7 cells assessed as reduction in viral RNA level at 83.3 uM after 8 to 10 days by quantitative PCR analysis. Type of data set: functional, Hepacivirus hominis.
Data set [11] has as its system Hepatitis C virus. Nature of the data set: Antiviral activity against HCV subtype 1a infected in Huh-7 cells assessed as reduction in viral RNA level at 35.6 uM after 8 to 10 days by quantitative PCR analysis. The class given is functional, Hepacivirus hominis.
In data set [12] the test system is Hepatitis C virus. As to the kind of experiment: Antiviral activity against HCV subtype 1a infected in Huh-7 cells assessed as reduction in viral RNA level at 67.7 uM after 8 to 10 days by quantitative PCR analysis. The class given is functional, Hepacivirus hominis.
The subject of data set [13] is Hepatitis C virus. Nature of the data set: Antiviral activity against HCV subtype 1a infected in Huh-7 cells assessed as reduction in viral RNA level at 66.2 uM after 8 to 10 days by quantitative PCR analysis. Type of data set: functional, Hepacivirus hominis.
In data set [14] the test system is Hepatitis C virus. Nature of the data set: Antiviral activity against HCV subtype 1a infected in Huh-7 cells assessed as reduction in viral RNA level at 33.1 uM after 8 to 10 days by quantitative PCR analysis in presence of ribavirin. Type of data set: functional, Hepacivirus hominis.
Data set [15] concerns Hepatitis C virus. As to the kind of experiment: Antiviral activity against HCV subtype 1a infected in Huh-7 cells assessed as reduction in viral RNA level at 33.1 uM after 8 to 10 days by quantitative PCR analysis. The class given is functional, Hepacivirus hominis.
Data set [16] has as its system Hepatitis C virus. As to the kind of experiment: Antiviral activity against HCV subtype 1a infected in Huh-7 cells assessed as reduction in viral RNA level at 69.6 uM after 8 to 10 days by quantitative PCR analysis. Type of data set: functional, Hepacivirus hominis.
In data set [17] the test system is Hepatitis C virus. As to the kind of experiment: Antiviral activity against HCV subtype 1a infected in Huh-7 cells assessed as reduction in viral RNA level at 72.9 uM after 8 to 10 days by quantitative PCR analysis. Type of data set: functional, Hepacivirus hominis.
The test system of data set [18] is Hepatitis C virus. Nature of the data set: Antiviral activity against HCV subtype 1a infected in Huh-7 cells assessed as reduction in viral RNA level at 41 uM after 8 to 10 days by quantitative PCR analysis. The class given is functional, Hepacivirus hominis.
Data set [19] relates to Hepatitis C virus. As to the kind of experiment: Antiviral activity against HCV subtype 1a infected in Huh-7 cells assessed as reduction in viral RNA level at 81.9 uM after 8 to 10 days by quantitative PCR analysis. Type of data set: functional, Hepacivirus hominis.

The term CC50 denotes the concentration at which the toxic effect on the cells reaches its halfway point. High values mean lower toxicity to the cells, low ones greater toxicity to the cells. Usually inhibition stands for the relative decrease from the control value, in per cent. In the case of `Cc1cn([C@H]2CC=C(C(N)=O)O2)c(=O)[nH]c1=O`, in [1], the CC50 at 48 h is over 1060 µM. Besides, in the data set with Hepatitis C virus [2], the inhibition at 84.4 µM amounted to 20%. Besides, the “Ratio CC50/EC50” value in data set [3] is over 10.

One may read the EC50 as the concentration at which the effect is half-maximal. In data set [1], `COC(=O)[C@H]1O[C@@H](n2cc(C)c(=O)[nH]c2=O)[C@H](F)[C@@H]1O` showed a cytotoxic concentration (CC50) at 48 h of over 868 µM. Also, in the data set on Hepatitis C virus [4], the concentration giving a half-maximal response (EC50) came to 43.4 µM. Further, the inhibition at 69.4 µM with Hepatitis C virus [5] was 56%. In data set [3], the “Ratio CC50/EC50” value was over 10.

In data set [1], `[N-]=[N+]=N[C@H]1C[C@H](n2ccc(=O)[nH]c2=O)O[C@@H]1C(N)=O` showed a CC50 at 48 h of over 940 µM. Moreover, the inhibition at 75.2 µM in the data set on Hepatitis C virus [6] was determined as 10%. Moreover, the “Ratio CC50/EC50” value in [3] is recorded as over 10.

Regarding `Cc1cn([C@H]2C[C@H](N=[N+]=[N-])[C@@H](C(N)=O)O2)c(=O)[nH]c1=O`, the half-maximal cytotoxic concentration (CC50) at 48 h in [1] is over 893 µM. The inhibition at 71.4 µM in the data set with Hepatitis C virus [7] amounted to 10%. Also, in [3], the “Ratio CC50/EC50” value was over 10.

In data set [1], `CCc1cn([C@@H]2O[C@H](C(N)=O)[C@@H](O)[C@@H]2F)c(=O)[nH]c1=O` displayed a CC50 at 48 h of over 871 µM. The inhibition at 69.7 µM with Hepatitis C virus [8] was 20%. Further, in [3], the “Ratio CC50/EC50” value is reported as over 10.

For the molecule `COC(=O)[C@@H]1C=C[C@H](n2cc(C)c(=O)[nH]c2=O)O1`, in [1], the CC50 at 48 h is over 992 µM. Moreover, the EC50 in the data set with Hepatitis C virus [4] turned out to be 49.6 µM. Moreover, the “Ratio CC50/EC50” value in data set [3] is over 10. In addition, in the data set on Hepatitis C virus [9], the inhibition at 79.4 µM came out at 58%.

Turning to `COC(=O)C1=CC[C@H](n2cc(C)c(=O)[nH]c2=O)O1`, in data set [1], the CC50 at 48 h was over 992 µM. Moreover, in the data set with Hepatitis C virus [4], the EC50 was determined as 79.4 µM. Besides, the “Ratio CC50/EC50” value in [3] is listed as over 10. Also, the inhibition at 79.4 µM in the data set on Hepatitis C virus [9] was 50%.

Regarding `COC(=O)[C@@H]1CC[C@H](n2ccc(=O)[nH]c2=O)O1`, the CC50 at 48 h in data set [1] is over 1040 µM. In addition, the “Ratio CC50/EC50” value in [3] is given as over 10. Also, the inhibition at 83.3 µM in the data set on Hepatitis C virus [10] was 0%.

As to `COC(=O)[C@H]1O[C@@H](n2ccc(=O)[nH]c2=O)C[C@@H]1N=[N+]=[N-]`, the CC50 at 48 h in data set [1] was over 890 µM. Also, the EC50 in the data set with Hepatitis C virus [4] was 35.6 µM. The inhibition at 35.6 µM with Hepatitis C virus [11] came to 54%. Further, the “Ratio CC50/EC50” value in [3] was over 10.

On to `COC(=O)[C@H]1O[C@@H](n2cc(C)c(=O)[nH]c2=O)C[C@@H]1N=[N+]=[N-]`, for which, in the data set with Hepatitis C virus [12], the inhibition at 67.7 µM was found to be 60%. For the same molecule, the CC50 at 48 h in data set [1] was over 847 µM. Also, the EC50 in the data set with Hepatitis C virus [4] was found to be 33.9 µM. Besides, the “Ratio CC50/EC50” value in data set [3] was over 10.

`CCc1cn([C@@H]2O[C@H](C(=O)OC)[C@@H](O)[C@@H]2F)c(=O)[nH]c1=O` displayed a cytotoxic concentration (CC50) at 48 h in [1] of over 829 µM. In addition, the inhibition at 66.2 µM in the data set with Hepatitis C virus [13] worked out at 65%. Also, the 50% effective concentration (EC50) with Hepatitis C virus [4] stood at 33.1 µM. Also, the “fractional inhibitory concentration index (FICI)” value with Hepatitis C virus [14] is reported as 0.3. Besides, the “Ratio CC50/EC50” value in data set [3] is over 10. The inhibition at 33.1 µM with Hepatitis C virus [15] came out at 50%.

In [1], `COC(=O)[C@H]1O[C@@H](n2ccc(=O)[nH]c2=O)[C@H](OC)[C@@H]1O` registered a CC50 at 48 h of over 874 µM. Further, in the data set on Hepatitis C virus [16], the inhibition at 69.6 µM is 53%. For the same molecule, the EC50 in the data set with Hepatitis C virus [4] came to 69.6 µM. In addition, the “Ratio CC50/EC50” value in data set [3] is recorded as over 10.

Regarding `COC(=O)[C@H]1O[C@@H](n2cc(C)c(=O)[nH]c2=O)C[C@@H]1Cl`, the CC50 at 48 h in [1] is over 868 µM. In the data set on Hepatitis C virus [4], the 50% effective concentration (EC50) came to 43.4 µM. For the same molecule, the inhibition at 69.4 µM in the data set with Hepatitis C virus [5] is 58%. Also, the “Ratio CC50/EC50” value in data set [3] is recorded as over 10.

For the molecule `COC(=O)[C@H]1O[C@@H](n2ccc(=O)[nH]c2=O)[C@H](F)[C@@H]1O`, the half-maximal cytotoxic concentration (CC50) at 48 h in [1] is over 912 µM. Moreover, in the data set on Hepatitis C virus [17], the inhibition at 72.9 µM came out at 43%. The EC50 in the data set on Hepatitis C virus [4] was over 72.9 µM. In addition, the “Ratio CC50/EC50” value in data set [3] is listed as over 10.

Turning to `NC(=O)c1ncn([C@@H]2O[C@H](CO)[C@@H](O)[C@H]2O)n1` [RIBAVIRIN], the inhibition at 41 µM with Hepatitis C virus [18] was 32%. The “Ratio CC50/EC50” value in data set [3] is over 10. Further, the inhibition at 81.9 µM in the data set with Hepatitis C virus [19] was determined as 50%.
